Source: ChEMBL document CHEMBL5375954, “Discovery and Evaluation of C6-Substituted Pyrazolopyrimidine-Based Bisphosphonate Inhibitors of the Human Geranylgeranyl Pyrophosphate Synthase and Evaluation of Their Antitumor Efficacy in Multiple Myeloma, Pancreatic Ductal Adenocarcinoma, and Colorectal Cancer” (J Med Chem, 2023)
Calls of active or inactive are those of the source. The calls are words filed in the database; no cut-off is given here.

System: not listed separately
Test: Cytotoxicity against Normal human bronchial epithelial cells assessed as inhibition of cell growth at 10 uM incubated for 72 hrs by MTS assay relative to control
Type: toxicity, cell-based
Settings: not given

Compound	inhibition at 72 h, 10 µM
COc1ccc(NC(=O)c2cccc(-c3nc(NC(P(=O)(O)O)P(=O)(O)O)c4ccsc4n3)c2)cc1F	~30%

System: HCT-116
Test: cells
Settings: Homo sapiens, HCT-116, 72 h

Compound	EC50
Nc1ccn([C@@H]2O[C@H](CO)[C@@H](O)C2(F)F)c(=O)n1 [GEMCITABINE]	4 nM
COc1cccc2c1C(=O)c1c(O)c3c(c(O)c1C2=O)C[C@@](O)(C(=O)CO)C[C@@H]3O[C@H]1C[C@H](N)[C@H](O)[C@H](C)O1 [DOXORUBICIN]	41 nM

System: not listed separately
Test: Cytotoxicity against human IMR-90 cells assessed as inhibition of cell growth incubated for 72 hrs by MTS assay
Type: toxicity, cell-based
Settings: not given

Compound	EC50 at 72 h
COc1cccc2c1C(=O)c1c(O)c3c(c(O)c1C2=O)C[C@@](O)(C(=O)CO)C[C@@H]3O[C@H]1C[C@H](N)[C@H](O)[C@H](C)O1 [DOXORUBICIN]	360 nM

System: RPMI-8226
Test: Antiproliferative activity against human RPMI-8226 cells harboring KRAS G12A mutant at 0.1 to 10000 nM incubated for 72 hrs by MTS assay
Type: functional, cell-based
Settings: dose 0.1-10000 nM

Compound	Activity
COc1ccc(NC(=O)c2cccc(-c3nc(NC(P(=O)(O)O)P(=O)(O)O)c4ccsc4n3)c2)cc1F	Active

Target: T1, Ras-related protein Rap-1A (Homo sapiens) (UniProt P62834)
T1 sequence (whole entry): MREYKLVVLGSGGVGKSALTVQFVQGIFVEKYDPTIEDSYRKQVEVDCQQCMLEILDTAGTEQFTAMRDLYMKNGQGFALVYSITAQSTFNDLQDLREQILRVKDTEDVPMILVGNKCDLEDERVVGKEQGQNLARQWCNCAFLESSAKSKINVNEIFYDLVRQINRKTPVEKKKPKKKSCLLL
Test: Inhibition of RAP-1A prenylation in human HCT-116 cells incubated for 48 hrs by Western blot analysis
Type: cell-based
Settings: dose 10-1000 nM

Compound	inhibition
COc1ccc(NC(=O)c2cccc(-c3nc(NC(P(=O)(O)O)P(=O)(O)O)c4ccsc4n3)c2)cc1F	Dose-Dependent Effect

System: HCT-116
Test: Antiproliferative activity against human HCT-116 cells assessed as inhibition of cell growth at 1 uM incubated for 72 hrs by MTS assay
Type: functional, cell-based
Settings: not given

Compound	Activity
COc1ccc(NC(=O)c2cccc(-c3nc(NC(P(=O)(O)O)P(=O)(O)O)c4cnn(C(C)C)c4n3)c2)cc1F	inactive
COc1ccc(NC(=O)c2cccc(-c3nc(NC(P(=O)(O)O)P(=O)(O)O)c4cnn(C)c4n3)c2)cc1F	inactive
COc1ccc(NC(=O)c2cccc(-c3nc(NC(P(=O)(O)O)P(=O)(O)O)c4cn[nH]c4n3)c2)cc1F	inactive
COc1ccc(NC(=O)c2cccc(-c3nc(NC(P(=O)(O)O)P(=O)(O)O)c4ncn(C)c4n3)c2)cc1F	inactive
CCn1ncc2c(NC(P(=O)(O)O)P(=O)(O)O)nc(-c3cccc(C(=O)Nc4ccc(OC)c(F)c4)c3)nc21	inactive

Target: T2, Farnesyl pyrophosphate synthase (Homo sapiens) (UniProt P14324)
T2 sequence (whole entry): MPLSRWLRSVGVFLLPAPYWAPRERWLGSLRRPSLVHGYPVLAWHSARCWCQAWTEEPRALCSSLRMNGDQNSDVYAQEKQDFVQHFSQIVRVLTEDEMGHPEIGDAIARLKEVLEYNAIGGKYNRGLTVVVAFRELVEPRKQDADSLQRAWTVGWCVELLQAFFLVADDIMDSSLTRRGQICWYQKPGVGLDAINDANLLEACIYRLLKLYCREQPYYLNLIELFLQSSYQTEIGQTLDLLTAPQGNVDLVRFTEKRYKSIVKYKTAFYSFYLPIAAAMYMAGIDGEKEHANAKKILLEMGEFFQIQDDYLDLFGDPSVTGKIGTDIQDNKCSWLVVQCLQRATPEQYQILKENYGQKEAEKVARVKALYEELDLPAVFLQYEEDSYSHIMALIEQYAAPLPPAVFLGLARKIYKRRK
Test: Inhibition of N-terminally His6-tagged recombinant human FPPS expressed in Escherichia coli BL21(DE3) cells using […] and [14C]IPP as substrate at 1 uM preincubated for 10 mins followed by substrate addition by scintillation counting analysis relative to control
Settings: not given

Compound	inhibition
COc1ccc(NC(=O)c2cccc(-c3nc(NC(P(=O)(O)O)P(=O)(O)O)c4cnn(C(C)C)c4n3)c2)cc1F	< 10%
COc1ccc(NC(=O)c2cccc(-c3nc(NC(P(=O)(O)O)P(=O)(O)O)c4cn(C)nc4n3)c2)cc1F	15%
COc1ccc(NC(=O)c2cccc(-c3nc(NC(P(=O)(O)O)P(=O)(O)O)c4cnn(C)c4n3)c2)cc1F	< 10%
COc1ccc(NC(=O)c2cccc(-c3nc(NC(P(=O)(O)O)P(=O)(O)O)c4cn[nH]c4n3)c2)cc1F	10%
COc1ccc(NC(=O)c2cccc(-c3nc(NC(P(=O)(O)O)P(=O)(O)O)c4ncn(C)c4n3)c2)cc1F	< 10%
CCn1ncc2c(NC(P(=O)(O)O)P(=O)(O)O)nc(-c3cccc(C(=O)Nc4ccc(OC)c(F)c4)c3)nc21	< 10%

System: not listed separately
Test: Cytotoxicity against wild type mouse normal ductal organoid [N(10128)] at 1 uM incubated for 72 hrs by CellTiter-Glo luminescence based analysis
Type: toxicity, tissue-based
Settings: not given

Compound	Activity
COc1cccc2c1C(=O)c1c(O)c3c(c(O)c1C2=O)C[C@@](O)(C(=O)CO)C[C@@H]3O[C@H]1C[C@H](N)[C@H](O)[C@H](C)O1 [DOXORUBICIN]	Toxic
COc1ccc(NC(=O)c2cccc(-c3nc(NC(P(=O)(O)O)P(=O)(O)O)c4ccsc4n3)c2)cc1F	Non-Toxic

System: not listed separately
Test: Cytotoxicity against Normal human bronchial epithelial cells assessed as inhibition of cell growth incubated for 72 hrs by MTS assay
Type: toxicity, cell-based
Settings: not given

Compound	EC50 at 72 h
COc1cccc2c1C(=O)c1c(O)c3c(c(O)c1C2=O)C[C@@](O)(C(=O)CO)C[C@@H]3O[C@H]1C[C@H](N)[C@H](O)[C@H](C)O1 [DOXORUBICIN]	450 nM

System: JJN-3
Test: Antiproliferative activity against human JJN-3 cells harboring wild type KRAS at 0.1 to 10000 nM incubated for 72 hrs by MTS assay
Type: functional, cell-based
Settings: dose 0.1-10000 nM

Compound	Activity
COc1ccc(NC(=O)c2cccc(-c3nc(NC(P(=O)(O)O)P(=O)(O)O)c4ccsc4n3)c2)cc1F	Active

System: MIA PaCa-2
Test: Antiproliferative activity against human MIA PaCa-2 cells assessed as inhibition of cell growth at 1 uM incubated for 72 hrs by MTS assay
Type: functional, cell-based
Settings: not given

Compound	Activity
COc1ccc(NC(=O)c2cccc(-c3nc(NC(P(=O)(O)O)P(=O)(O)O)c4cnn(C(C)C)c4n3)c2)cc1F	inactive
COc1ccc(NC(=O)c2cccc(-c3nc(NC(P(=O)(O)O)P(=O)(O)O)c4cnn(C)c4n3)c2)cc1F	inactive
COc1ccc(NC(=O)c2cccc(-c3nc(NC(P(=O)(O)O)P(=O)(O)O)c4cn[nH]c4n3)c2)cc1F	inactive
COc1ccc(NC(=O)c2cccc(-c3nc(NC(P(=O)(O)O)P(=O)(O)O)c4ncn(C)c4n3)c2)cc1F	inactive
CCn1ncc2c(NC(P(=O)(O)O)P(=O)(O)O)nc(-c3cccc(C(=O)Nc4ccc(OC)c(F)c4)c3)nc21	inactive

System: MIA PaCa-2
Test: cells
Settings: Homo sapiens, MIA PaCa-2, 72 h

Compound	EC50
Nc1ccn([C@@H]2O[C@H](CO)[C@@H](O)C2(F)F)c(=O)n1 [GEMCITABINE]	2 nM
COc1cccc2c1C(=O)c1c(O)c3c(c(O)c1C2=O)C[C@@](O)(C(=O)CO)C[C@@H]3O[C@H]1C[C@H](N)[C@H](O)[C@H](C)O1 [DOXORUBICIN]	130 nM

System: RPMI-8226
Test: Induction of ER stress in human RPMI-8226 cells at 1 uM
Type: functional, cell-based
Settings: not given

Compound	Activity
COc1ccc(NC(=O)c2cccc(-c3nc(NC(P(=O)(O)O)P(=O)(O)O)c4ccsc4n3)c2)cc1F	Active

Target: T3, Geranylgeranyl pyrophosphate synthase (Homo sapiens, UniProt O95749)
T3 sequence (O95749 whole entry): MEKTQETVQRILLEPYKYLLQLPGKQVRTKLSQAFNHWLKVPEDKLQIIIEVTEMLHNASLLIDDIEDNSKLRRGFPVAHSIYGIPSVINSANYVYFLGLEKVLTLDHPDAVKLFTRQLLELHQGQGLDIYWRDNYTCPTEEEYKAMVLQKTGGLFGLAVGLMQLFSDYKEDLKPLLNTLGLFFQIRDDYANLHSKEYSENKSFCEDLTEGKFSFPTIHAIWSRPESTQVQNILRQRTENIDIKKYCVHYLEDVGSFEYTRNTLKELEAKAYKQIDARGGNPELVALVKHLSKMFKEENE
Test: Inhibition of N-terminal His6 tagged human GGPPS expressed in Escherichia coli BL21(DE3) cells in presence of FPP and [14C]IPP by scintillation counting analysis
Settings: not given

Compound	IC50
O=C(Nc1ccc(C(F)(F)F)cc1)c1cccc(-c2nc(NC(P(=O)(O)O)P(=O)(O)O)c3cn[nH]c3n2)c1	8 nM
COc1ccc(NC(=O)c2cccc(-c3nc(NC(P(=O)(O)O)P(=O)(O)O)c4cnn(C(C)C)c4n3)c2)cc1F	41 nM
COc1ccc(NC(=O)c2cccc(-c3nc(NC(P(=O)(O)O)P(=O)(O)O)c4cn(C)nc4n3)c2)cc1F	56 nM
COc1ccc(NC(=O)c2cccc(-c3nc(NC(P(=O)(O)O)P(=O)(O)O)c4cnn(C)c4n3)c2)cc1F	48 nM
COc1ccc(NC(=O)c2cccc(-c3nc(NC(P(=O)(O)O)P(=O)(O)O)c4cn[nH]c4n3)c2)cc1F	25 nM
COc1ccc(NC(=O)c2cccc(-c3nc(NC(P(=O)(O)O)P(=O)(O)O)c4ncn(C)c4n3)c2)cc1F	58 nM
CCn1ncc2c(NC(P(=O)(O)O)P(=O)(O)O)nc(-c3cccc(C(=O)Nc4ccc(OC)c(F)c4)c3)nc21	40 nM

Species: Mus musculus
Test: Cytotoxicity against KPC mouse pancreatic cancer organoid ccmT4 at 1 uM incubated for 72 hrs by CellTiter-Glo luminescence based analysis
Type: functional, tissue-based
Settings: not given

Compound	Activity
COc1cccc2c1C(=O)c1c(O)c3c(c(O)c1C2=O)C[C@@](O)(C(=O)CO)C[C@@H]3O[C@H]1C[C@H](N)[C@H](O)[C@H](C)O1 [DOXORUBICIN]	Active
COc1ccc(NC(=O)c2cccc(-c3nc(NC(P(=O)(O)O)P(=O)(O)O)c4ccsc4n3)c2)cc1F	Active

Target: T1, Ras-related protein Rap-1A (Homo sapiens)
Test: Inhibition of RAP-1A prenylation in human MIA PaCa-2 cells incubated for 48 hrs by Western blot analysis
Type: cell-based
Settings: dose 10-1000 nM

Compound	inhibition
COc1ccc(NC(=O)c2cccc(-c3nc(NC(P(=O)(O)O)P(=O)(O)O)c4ccsc4n3)c2)cc1F	Dose-Dependent Effect

System: KMS-12-PE
Test: Antiproliferative activity against human KMS-12-PE cells harboring wild type KRAS at 0.1 to 10000 nM incubated for 72 hrs by MTS assay
Type: functional, cell-based
Settings: dose 0.1-10000 nM

Compound	Activity
COc1ccc(NC(=O)c2cccc(-c3nc(NC(P(=O)(O)O)P(=O)(O)O)c4ccsc4n3)c2)cc1F	Active

System: RPMI-8226
Test: cells
Settings: Homo sapiens, RPMI-8226, 72 h

Compound	EC50
O=C(Nc1ccc(C(F)(F)F)cc1)c1cccc(-c2nc(NC(P(=O)(O)O)P(=O)(O)O)c3cn[nH]c3n2)c1	> 1000 nM
COc1ccc(NC(=O)c2cccc(-c3nc(NC(P(=O)(O)O)P(=O)(O)O)c4cnn(C(C)C)c4n3)c2)cc1F	> 1000 nM
COc1ccc(NC(=O)c2cccc(-c3nc(NC(P(=O)(O)O)P(=O)(O)O)c4cn(C)nc4n3)c2)cc1F	520 nM
COc1ccc(NC(=O)c2cccc(-c3nc(NC(P(=O)(O)O)P(=O)(O)O)c4cnn(C)c4n3)c2)cc1F	150 nM
COc1ccc(NC(=O)c2cccc(-c3nc(NC(P(=O)(O)O)P(=O)(O)O)c4cn[nH]c4n3)c2)cc1F	640 nM
COc1ccc(NC(=O)c2cccc(-c3nc(NC(P(=O)(O)O)P(=O)(O)O)c4ncn(C)c4n3)c2)cc1F	170 nM
CCn1ncc2c(NC(P(=O)(O)O)P(=O)(O)O)nc(-c3cccc(C(=O)Nc4ccc(OC)c(F)c4)c3)nc21	> 1000 nM

System: not listed separately
Test: Cytotoxicity against wild type mouse normal ductal organoid [N(10128)] at low nM concentrations incubated for 72 hrs by CellTiter-Glo luminescence based analysis
Type: toxicity, tissue-based
Settings: not given

Compound	Activity
Nc1ccn([C@@H]2O[C@H](CO)[C@@H](O)C2(F)F)c(=O)n1 [GEMCITABINE]	Toxic

System: KMS-28PE
Test: Antiproliferative activity against human KMS-28-PE cells harboring KRAS G12A mutant at 0.1 to 10000 nM incubated for 72 hrs by MTS assay
Type: functional, cell-based
Settings: dose 0.1-10000 nM

Compound	Activity
COc1ccc(NC(=O)c2cccc(-c3nc(NC(P(=O)(O)O)P(=O)(O)O)c4ccsc4n3)c2)cc1F	Active
